These results are taken from patent publication EP3442964B1, “NOVEL N-[(PYRIMIDINYLAMINO)PROPANYL]-AND N [(PYRAZINYLAMINO)PROPANYL]ARYLCARBOXAMIDES” (Boehringer Ingelheim International GmbH, priority 2016, dated 2017).

The target of one data set is T1, human orexin 2 receptor (Homo sapiens, UniProt O43614).
T1 sequence (O43614 1-444): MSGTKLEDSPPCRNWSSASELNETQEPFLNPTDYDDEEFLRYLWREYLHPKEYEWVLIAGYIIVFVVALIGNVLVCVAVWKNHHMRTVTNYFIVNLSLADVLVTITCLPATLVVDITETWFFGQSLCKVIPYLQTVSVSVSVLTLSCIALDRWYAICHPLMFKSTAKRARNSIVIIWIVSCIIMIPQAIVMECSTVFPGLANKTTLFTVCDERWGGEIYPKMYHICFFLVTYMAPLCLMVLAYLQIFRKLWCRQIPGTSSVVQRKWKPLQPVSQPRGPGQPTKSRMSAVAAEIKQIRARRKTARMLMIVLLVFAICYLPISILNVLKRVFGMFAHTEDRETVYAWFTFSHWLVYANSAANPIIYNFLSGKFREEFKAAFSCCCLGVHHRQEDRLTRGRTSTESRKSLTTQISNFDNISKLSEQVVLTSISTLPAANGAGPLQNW
The format is cell-based. The text has this: Chem. Genomics 2009, 3, 22-32.

A short description of data set [1]: Assay C: metabolic stability in human liver microsomes (human MST). To be noted: pooled human liver microsomes, pH 7.6, 1 µM test compound, 37°C. Type of data set: in vitro ADME. The text has this: Stability in human liver microsomes refers to the susceptibility of compounds to biotransformation in the context of selecting and/or designing drugs with favorable pharmacokinetic properties. The primary site of metabolism for many drugs is the liver. Human liver microsomes contain the cytochrome P450s (CYPs), and thus represent a model system for studying drug metabolization in vitro. Enhanced stability in human liver microsomes is associated with several advantages, including increased bioavailability and longer half-life, which can enable lower and less frequent dosing of patients. Thus, enhanced stability in human liver microsomes is a favorable characteristic for compounds that are to be used for drugs.
The metabolic stability of the compounds according to the invention may be investigated as follows: The metabolic degradation of the test compound is assayed at 37°C with pooled human liver microsomes. The final incubation volume of 100 µL per time point contains TRIS buffer pH 7.6 at room temperature (0.1 M), MgCl2 (5 mM), microsomal protein (1 mg/mL) and the test compound at a final concentration of 1 µM. Following a short pre-incubation period at 37°C , the reactions are initiated by addition of beta-nicotinamide adenine dinucleotide phosphate, reduced form (NADPH, 1 mM), and terminated by transferring an aliquot into solvent after different time points. After centrifugation (10000 g, 5 min), an aliquot of the supernatant is assayed by LC-MS/MS for the amount of parent compound. The half-life (t1/2) is determined by the slope of the semi-logarithmic plot of the concentration-time profile.
For orientation: Liver microsomes are a subcellular fraction often used to study metabolism.

A further data set has as its target T2, human MDR1 P-gp (Homo sapiens, UniProt P08183).
T2 construct: expressed in transfected cells; host or cells: MDCK (MDCK-MDR1)
The experiment in a line: Assay D: efflux in MDCK cells transfected with the human MDR1 gene. Type of data set: in vitro ADME. Particulars: MDCK-MDR1 monolayers, pH 7.4, 37°C. How it is done: The MDCK assay provides information on the potential of a compound to pass the blood brain barrier. Permeability measurements across polarized, confluent MDCK-MDR1 cell monolayers grown on permeable filter supports are used as an in vitro absorption model: apparent permeability coefficients (PE) of the compounds across the MDCK-MDR1 cell monolayers are measured (pH 7.4, 37°C) in apical-to-basal (AB) and basal-to-apical (BA) transport direction. The AB permeability (PEAB) represents drug absorption from the blood into the brain and the BA permeability (PEBA) drug efflux from the brain back into the blood via both, passive permeability as well as active transport mechanisms mediated by efflux and uptake transporters that are expressed on the MDCK-MDR1 cells, predominantly by the overexpressed human MDR1 P-gp. Identical or similar permeabilities in both transport directions indicate passive permeation, vectorial permeability points to additional active transport mechanisms. Higher PEBA than PEAB (PEBA/PEAB > 5) indicates the involvement of active efflux mediated by MDR1 P-gp, which might compromises the goal to achieve sufficient brain exposure. Therefore this assay provides valuable support for selection of compounds applicable for further in vivo testing. High permeability not limited by efflux at the blood brain barrier is a favourable characteristic for compounds that are to be used for drugs acting primarily in the CNS
Apparent permeability coefficients (PE) of the compounds across the MDCK-MDR1 cell monolayers are measured (pH 7.4, 37°C) in apical-to-basal (AB) and basal-to-apical (BA) transport direction. AB permeability (PEAB) represents drug absorption from the blood into the brain and BA permeability (PEBA) drug efflux from the brain back into the blood via both passive permeability as well as active transport mechanisms mediated by efflux and uptake transporters that are expressed on the MDCK-MDR1 cells, predominantly by the overexpressed human MDR1 P-gp. The compounds are assigned to permeability/absorption classes by comparison of the AB permeabilities with the AB permeabilities of reference compounds with known in vitro permeability and oral absorption in the human. Identical or similar permeabilities in both transport directions indicate passive permeation, vectorial permeability points to additional active transport mechanisms. Higher PEBA than PEAB indicates the involvement of active efflux mediated by MDR1 P-gp. Active transport is concentration- dependently saturable.
MDCK-MDR1 cells (1-2 x 10e5 cells/1 cm2 area) are seeded on filter inserts (Costar transwell polycarbonate or PET filters, 0.4 µm pore size) and cultured (DMEM) for 7 days. Subsequently, the MDR1 expression is boosted by culturing the cells with 5 mM sodium butyrate in full medium for 2 days. Compounds are dissolved in appropriate solvent (like DMSO, 1 -20 mM stock solutions). Stock solutions are diluted with HTP-4 buffer (128.13 mM NaCl, 5.36 mM KCI, 1 mM MgSO4, 1.8 mM CaCl2, 4.17 mM NaHCO3, 1.19 mM Na2HPO4 x 7H2O, 0.41 mM NaH2PO4xH2O, 15 mM HEPES, 20 mM glucose, 0.25 % BSA, pH 7.4) to prepare the transport solutions (0.1 - 300 µM compound, final DMSO <= 0.5 %). The transport solution (TL) is applied to the apical or basolateral donor side for measuring A-B or B-A permeability (3 filter replicates), respectively. The receiver side contains the same buffer as the donor side. Samples are collected at the start and end of experiment from the donor and at various time intervals for up to 2 hours also from the receiver side for concentration measurement by HPLC-MS/MS or scintillation counting. Sampled receiver volumes are replaced with fresh receiver solution.

The target in the next data set is T3, OX2R (Homo sapiens, UniProt O43614).
T3 sequence (O43614 1-444): T1 sequence (O43614 1-444)
To be noted: cited from earlier work; for OX2R pIC50: Table 3 of WO2016/034882; for IC50: corresponds to pIC50 of Table 3 of WO2016/034882.

Where [2] appears, read: read-out: Assay C: Human MST t1/2.
[3] abbreviates: read-out: Assay D:MDCK efflux ratio (BA/AB).
Setting [4] is: read-out: Data as determined in Assay C: Human MST t1/2.

Where two headings read alike, the source gives them in different places.

T2 sequence (P08183 whole entry): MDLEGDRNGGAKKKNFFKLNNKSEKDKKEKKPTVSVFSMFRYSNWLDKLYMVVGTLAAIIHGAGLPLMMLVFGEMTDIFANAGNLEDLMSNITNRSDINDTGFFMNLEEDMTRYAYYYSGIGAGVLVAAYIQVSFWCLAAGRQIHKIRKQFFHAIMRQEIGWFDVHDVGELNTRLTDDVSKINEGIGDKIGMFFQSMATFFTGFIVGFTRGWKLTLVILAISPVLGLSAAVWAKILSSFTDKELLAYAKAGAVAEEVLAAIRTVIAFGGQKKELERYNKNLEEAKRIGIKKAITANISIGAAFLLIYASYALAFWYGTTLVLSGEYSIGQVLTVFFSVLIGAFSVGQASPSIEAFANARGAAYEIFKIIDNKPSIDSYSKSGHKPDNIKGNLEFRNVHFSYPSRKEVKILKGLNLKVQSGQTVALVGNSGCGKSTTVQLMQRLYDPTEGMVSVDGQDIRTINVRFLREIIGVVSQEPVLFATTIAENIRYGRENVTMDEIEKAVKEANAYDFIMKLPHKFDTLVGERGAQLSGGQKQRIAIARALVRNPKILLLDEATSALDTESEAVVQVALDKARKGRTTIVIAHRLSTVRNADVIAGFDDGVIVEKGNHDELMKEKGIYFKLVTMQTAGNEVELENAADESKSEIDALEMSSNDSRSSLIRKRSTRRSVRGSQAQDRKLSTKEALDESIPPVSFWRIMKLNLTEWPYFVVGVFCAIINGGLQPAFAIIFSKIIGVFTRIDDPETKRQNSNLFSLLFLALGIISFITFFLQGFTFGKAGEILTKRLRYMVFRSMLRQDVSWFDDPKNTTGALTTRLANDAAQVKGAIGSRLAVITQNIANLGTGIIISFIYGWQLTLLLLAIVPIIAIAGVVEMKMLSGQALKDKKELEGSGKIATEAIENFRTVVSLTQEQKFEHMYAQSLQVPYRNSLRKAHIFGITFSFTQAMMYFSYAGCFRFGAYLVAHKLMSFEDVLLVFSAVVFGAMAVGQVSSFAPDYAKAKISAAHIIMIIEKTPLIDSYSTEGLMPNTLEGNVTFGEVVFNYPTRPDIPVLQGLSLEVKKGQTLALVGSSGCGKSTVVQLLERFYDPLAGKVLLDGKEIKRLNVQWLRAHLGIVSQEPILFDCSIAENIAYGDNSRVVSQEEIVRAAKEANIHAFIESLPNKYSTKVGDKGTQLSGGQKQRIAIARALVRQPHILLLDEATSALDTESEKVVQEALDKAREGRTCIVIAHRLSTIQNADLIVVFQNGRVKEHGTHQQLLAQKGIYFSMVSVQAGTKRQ

Consider `CCN(C(=O)c1nc(C)ccc1-n1cccn1)[C@@H](C)CNc1ncc(C(F)(F)F)cn1` [Example 12], for which the Kb on human orexin 2 receptor (0.5 nM Orexin A) stood at 129 nM. Besides, the half-life at 1 µM in data set [1] (setting [2]) is 1.08 h. In addition, the efflux ratio on human MDR1 P-gp (setting [3]) is below 3.
On to `C[C@@H](CNc1ccc(Cl)cn1)N(C)C(=O)c1ccccc1-c1ccccc1` [Example 14 in WO2016/034882, reference compound], for which the half-life at 1 µM in data set [1] (setting [2]) was determined as 0.0333 h.
Molecule `CCN(C(=O)c1ccc(F)cc1-n1nccn1)[C@@H](C)CNc1ncc(C(F)(F)F)cn1` [Example 2] registered a Kb at human orexin 2 receptor (0.5 nM Orexin A) of 64.5 nM. The half-life at 1 µM in data set [1] (setting [2]) came out at 0.717 h. The efflux ratio on human MDR1 P-gp (setting [3]) is below 3.
The like results for `CCN(C(=O)c1ccc(F)c(F)c1-n1nccn1)[C@@H](C)CNc1ncc(C(F)(F)F)cn1` [Example 4] were, in that order, 46.9 nM, 1.58 h and below 3.
On human orexin 2 receptor (0.5 nM Orexin A), `CCN(C(=O)c1c(F)cccc1-c1ncccn1)[C@@H](C)CNc1ncc(C(F)(F)F)cn1` [Example 13] came in with a Kb of 62 nM. The half-life at 1 µM in data set [1] (setting [2]) is above 2 h. Besides, on human MDR1 P-gp (setting [3]), the efflux ratio was below 3.
On human orexin 2 receptor (0.5 nM Orexin A), `CCN(C(=O)c1cc(C#N)ccc1-n1nccn1)[C@@H](C)CNc1ncc(C(F)(F)F)cn1` [Example 8] yielded a Kb of 33.4 nM. In addition, in data set [1] (setting [2]), the half-life at 1 µM is above 2 h. Moreover, the efflux ratio on human MDR1 P-gp (setting [3]) fell in the range of 3 to 5.
In the same order, the values of `CCN(C(=O)c1cc(F)cnc1-n1nccn1)[C@@H](C)CNc1ncc(C(F)(F)F)cn1` [Example 10] are 1060 nM, above 2 h and below 3.
In the same order, the values of `CCN(C(=O)c1ccc(F)cc1-c1ncccn1)[C@@H](C)CNc1ncc(C(F)(F)F)cn1` [Example 16] are 76.8 nM, 1.67 h and below 3.
The like results for `CCN(C(=O)c1ccccc1-n1nccn1)[C@@H](C)CNc1cnc(C(F)(F)F)cn1` [Example 22] were, in that order, 7.37 nM, above 2 h and 3 to 5.
`CCN(C(=O)c1cc(F)ccc1-n1nccn1)[C@@H](C)CNc1ncc(C(F)(F)F)cn1` [Example 5]: the Kb on human orexin 2 receptor (0.5 nM Orexin A) is 35.3 nM. Also, the half-life at 1 µM in data set [1] (setting [2]) turned out to be 2 h. Moreover, the efflux ratio at human MDR1 P-gp (setting [3]) is below 3.
In the same order, the values of `CCN(C(=O)c1cncnc1-c1ccccc1)[C@@H](C)CNc1ncc(C(F)(F)F)cn1` [Example 20] are 68 nM, 0.717 to 1.67 h and below 3.
The like results for `CCN(C(=O)c1nccnc1-c1ccccc1)[C@@H](C)CNc1ncc(C(F)(F)F)cn1` [Example 21] were, in that order, 55.9 nM, above 2 h and below 3.
In general, IC50 refers to the concentration that gives 50% inhibition. In the case of `CC[C@@H](CNc1ncc(C(F)(F)F)cn1)N(CC)C(=O)c1nc(C)ccc1-n1nccn1` [Example 73 in WO2016/034882], at OX2R, the “OX2R pIC50” value is below 6.0 and the IC50 was above 1000 nM. The half-life at 1 µM in data set [1] (setting [2]) was 0.183 h.
In turn, `CCN(C(=O)c1c(F)cccc1-n1nccn1)[C@@H](C)CNc1ncc(C(F)(F)F)cn1` [Example 7] gave a Kb at human orexin 2 receptor (0.5 nM Orexin A) of 33.4 nM. The half-life at 1 µM in data set [1] (setting [2]) was determined as 1.27 h. The efflux ratio at human MDR1 P-gp (setting [3]) was below 3.
At human orexin 2 receptor (0.5 nM Orexin A), `CCN(C(=O)c1ccccc1-c1noc(C)n1)[C@@H](C)CNc1ncc(C(F)(F)F)cn1` [Example 14] returned a Kb of 44 nM. For the same molecule, in data set [1] (setting [2]), the half-life at 1 µM came to 1.52 h. Moreover, the efflux ratio at human MDR1 P-gp (setting [3]) is below 3.
For the molecule `CC[C@@H](CNc1ncc(C(F)(F)F)cn1)N(C)C(=O)c1nc(C)ccc1-c1ncccn1` [Example 84 in WO2016/034882], at OX2R, the “OX2R pIC50” value was 6.0 and the IC50 is 1000 nM. Further, the half-life at 1 µM in data set [1] (setting [2]) turned out to be 0.683 h. In addition, the efflux ratio on human MDR1 P-gp (setting [3]) is below 3.
At human orexin 2 receptor (0.5 nM Orexin A), `CCN(C(=O)c1cc(F)ccc1-c1ncccn1)[C@@H](C)CNc1ncc(C(F)(F)F)cn1` [Example 15] yielded a Kb of 22.9 nM. The half-life at 1 µM in data set [1] (setting [2]) was above 2 h. Also, the efflux ratio at human MDR1 P-gp (setting [3]) was below 3.
As to `CCN(C(=O)c1nc(C)ccc1-c1ncccn1)[C@@H](C)Cn1nnc(-c2ccc(F)cc2)n1` [Example 69 in WO2013/187466, reference compound], the half-life at 1 µM in data set [1] (setting [4]) came to 0.383 h.
As to `Cc1nc(C(=O)N(C)CCNc2ncc(Br)cn2)c(-c2ccc(F)cc2)s1` [Example 6 in WO03/051872, reference compound], at human orexin 2 receptor (0.5 nM Orexin A concentration, read-out: Assay B: OX2R Kb), the Kb was determined as 101 nM. Further, in data set [1] (setting [2]), the half-life at 1 µM came out at 0.133 h. At human MDR1 P-gp (read-out: Assay D: MDCK efflux ratio (BA/AB)), the efflux ratio was 0.8.
Take `CCN(C(=O)c1cc(F)ccc1-c1ncccn1)[C@@H](C)Cn1nnc(-c2ccc(F)cc2)n1` [Example 70 in WO2013/187466, reference compound]: in data set [1] (setting [4]), the half-life at 1 µM stood at 0.267 h.
Turning to `CCN(C(=O)c1cccc(F)c1-n1nccn1)[C@@H](C)CNc1cnc(C(F)(F)F)cn1` [Example 24], the Kb at human orexin 2 receptor (0.5 nM Orexin A) was found to be 10 nM. Besides, the half-life at 1 µM in data set [1] (setting [2]) was determined as 1.02 h. Besides, the efflux ratio on human MDR1 P-gp (setting [3]) was in the range of 3 to 5.
For the molecule `CCN(C(=O)c1cccc(F)c1-c1ncccn1)[C@@H](C)CNc1ncc(C(F)(F)F)cn1` [Example 11], the Kb on human orexin 2 receptor (0.5 nM Orexin A) worked out at 19.3 nM. The half-life at 1 µM in data set [1] (setting [2]) was above 2 h. Also, the efflux ratio at human MDR1 P-gp (setting [3]) was in the range of 3 to 5.
On human orexin 2 receptor (0.5 nM Orexin A), `CCN(C(=O)c1ncccc1-c1ccccc1)[C@@H](C)CNc1ncc(C(F)(F)F)cn1` [Example 19] returned a Kb of 12.5 nM. Besides, the half-life at 1 µM in data set [1] (setting [2]) is above 2 h. For the same molecule, at human MDR1 P-gp (setting [3]), the efflux ratio was below 3.
In the same order, the values of `CCN(C(=O)c1ccc(F)cc1-c1nnc(C)o1)[C@@H](C)CNc1cnc(C(F)(F)F)cn1` [Example 23] are 222 nM, above 2 h and 3 to 5.
